This note sets out measurements from the SangsterLogP compilation.

For `CC(C)CCN1C(=O)CC2CCC(C)C3CCC4(C)OOC23C1O4` (stereo not given), the logP (commonly a log measure of how a compound divides between an organic and an aqueous phase) amounted to 4.16.

On to `CC(C)CN1C(=O)CC2CCC(C)C3CCC4(C)OOC23C1O4` (stereo not given), for which the logP is 3.66.

In the case of `C[C@@H]1CC[C@H]2[C@@H](C)C(=O)O[C@@H]3O[C@@]4(C)CC[C@@H]1[C@]32OO4` (relative stereo), the logP came to 2.9.

For `CC1CCC2CC(=O)N(CC(=O)O)C3OC4(C)CCC1C23OO4` (stereo not given), the logP was 1.75.

`CCCCCN1C(=O)CC2CCC(C)C3CCC4(C)OOC23C1O4` (stereo not given) displayed a logP of 4.24.

The compound `CC1CCC2CC(=O)N(Cc3ccc(Cl)cc3)C3OC4(C)CCC1C23OO4` (stereo not given) registered a logP of 4.32.

`CC1CCC2CC(=O)N(CCCc3ccccc3)C3OC4(C)CCC1C23OO4` (stereo not given): the logP was 4.39.

Regarding `CC1CCC2CC(=O)N(CCc3ccccc3)C3OC4(C)CCC1C23OO4` (stereo not given), the logP was determined as 3.94.

The compound `CCCN1C(=O)CC2CCC(C)C3CCC4(C)OOC23C1O4` (stereo not given) showed a logP of 3.41.

Regarding `C[C@@H]1CC[C@H]2[C@@H](C)CO[C@@H]3O[C@]4(C)CC[C@@H]1[C@]32OO4`, the logP came out at 3.16.
